Laboratory results published in PubChem BioAssay AID192 (DTP/NCI, 2004).
“And” between values parts separate entries of the source, which are not always exact repeats. Equal entries are not always repeated. Toxic doses and inconclusive results are not listed.

Test system: BDF1 mice, B16 melanoma ip, median survival T/C
Assay: NCI In Vivo Anticancer Drug Screen. Data for tumor model B16 Melanoma (intraperitoneal) in B6D2F1 (BDF1) mice
Details: endpoint: median survival time, higher = longer survival
Summary of the method: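 The ratio T/C compares compound-treated mice with vehicle-treated controls, using survival or tumor size as the endpoint in a transplantable tumor model.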

[1] = dose: 6.25 mg/kg/injection, schedule: Q01DX009 (ip), vehicle: saline
[2] = dose: 12.5 mg/kg/injection, schedule: Q01DX009 (ip), vehicle: saline
[3] = dose: 25.0 mg/kg/injection, schedule: Q01DX009 (ip), vehicle: saline
[4] = dose: 50.0 mg/kg/injection, schedule: Q01DX009 (ip), vehicle: saline
[5] = dose: 25.0 mg/kg/injection, schedule: Q01DX009 (ip), vehicle: Klucel (hydroxypropylcellulose) (HPC)
[6] = dose: 50.0 mg/kg/injection, schedule: Q01DX009 (ip), vehicle: Klucel (hydroxypropylcellulose) (HPC)
[7] = dose: 100.0 mg/kg/injection, schedule: Q01DX009 (ip), vehicle: Klucel (hydroxypropylcellulose) (HPC)
[8] = dose: 50.0 mg/kg/injection, schedule: Q01DX009 (ip), vehicle: saline with Tween-80
[9] = dose: 100.0 mg/kg/injection, schedule: Q01DX009 (ip), vehicle: saline with Tween-80
[10] = dose: 200.0 mg/kg/injection, schedule: Q01DX009 (ip), vehicle: saline with Tween-80
[11] = dose: 200.0 mg/kg/injection, schedule: Q01DX009 (ip), vehicle: Klucel (hydroxypropylcellulose) (HPC)
[12] = dose: 400.0 mg/kg/injection, schedule: Q01DX009 (ip), vehicle: Klucel (hydroxypropylcellulose) (HPC)

## O=C1C=CC(n2cc(F)c(=O)[nH]c2=O)O1 (stereo not drawn)
[1]
  T/C: 97 % of control
[2]
  T/C: 95 % of control
[3]
  T/C: 96 % of control
[4]
  T/C: 107 % of control
dose: 100.0 mg/kg/injection, schedule: Q01DX009 (ip), vehicle: saline
  T/C: 97 % of control

## C=C(CCC(C(=O)O)C1CCC2(C)C3=C(CCC12C)C1(C)CCC(O)C(C)(C)C1CC3)C(C)C (stereo not drawn)
dose: 20.0 mg/kg/injection, schedule: Q01DX009 (sc), vehicle: steriod suspending solution
  T/C: 98 % of control
dose: 40.0 mg/kg/injection, schedule: Q01DX009 (sc), vehicle: steriod suspending solution
  T/C: 105 % of control
dose: 80.0 mg/kg/injection, schedule: Q01DX009 (sc), vehicle: steriod suspending solution
  T/C: 101 % of control
dose: 160.0 mg/kg/injection, schedule: Q01DX009 (sc), vehicle: steriod suspending solution
  T/C: 92 % of control
dose: 165.0 mg/kg/injection, schedule: Q01DX009 (sc), vehicle: steriod suspending solution
  T/C: 94 % of control
dose: 250.0 mg/kg/injection, schedule: Q01DX009 (sc), vehicle: steriod suspending solution
  T/C: 102 % of control

## C1CNCCN1
dose: 25.0 mg/kg/injection, schedule: Q01DX009 (ip), vehicle: suspension in saline
  T/C: 93 % of control
dose: 50.0 mg/kg/injection, schedule: Q01DX009 (ip), vehicle: suspension in saline
  T/C: 102 % of control
dose: 100.0 mg/kg/injection, schedule: Q01DX009 (ip), vehicle: suspension in saline
  T/C: 106 % of control
dose: 200.0 mg/kg/injection, schedule: Q01DX009 (ip), vehicle: suspension in saline
  T/C: 90 % of control

## COc1cc(C(=O)N=Nc2c(O)[nH]c3ccc(Br)cc23)cc(OC)c1OC
[5]
  T/C: 98 % of control
[6]
  T/C: 109 % of control
[7]
  T/C: 86 % of control

## C/C=C(\C)c1cc(=O)c2c(C)cc3c(c2o1)C(=O)c1c(O)c(C2CC(C)(N(C)C)C(O)C(C)O2)cc(C2CC(N(C)C)C(O)C(C)O2)c1C3=O (stereo not drawn)
dose: 0.5 mg/kg/injection, schedule: Q01DX009 (ip), vehicle: Klucel (hydroxypropylcellulose) (HPC)
  T/C: 104 % of control
dose: 31.0 micrograms/kg/injection, schedule: Q01DX009 (ip), vehicle: saline
  T/C: 102 % of control
dose: 39.06 micrograms/kg/injection, schedule: Q01DX009 (ip), vehicle: saline
  T/C: 123 % of control
dose: 62.0 micrograms/kg/injection, schedule: Q01DX009 (ip), vehicle: saline
  T/C: 113 % of control
dose: 156.0 micrograms/kg/injection, schedule: Q01DX009 (ip), vehicle: saline
  T/C: 118 % of control
dose: 250.0 micrograms/kg/injection, schedule: Q01DX009 (ip), vehicle: saline
  T/C: 105 % of control
dose: 312.5 micrograms/kg/injection, schedule: Q01DX009 (ip), vehicle: saline
  T/C: 122 % of control
dose: 625.0 micrograms/kg/injection, schedule: Q01DX009 (ip), vehicle: saline
  T/C: 94 % of control and 100 % of control

## CC(=O)Nc1ccc([I+]c2ccc([N+](=O)[O-])cc2)cc1
[5]
  T/C: 100 % of control
[6]
  T/C: 104 % of control
[8]
  T/C: 87 % of control
[7]
  T/C: 90 % of control
[9]
  T/C: 98 % of control
[10]
  T/C: 107 % of control

## Cc1c(O)ccc(=O)n1O
dose: 40.0 mg/kg/injection, schedule: Q01DX009 (ip), vehicle: saline with Tween-80
  T/C: 97 % of control
dose: 80.0 mg/kg/injection, schedule: Q01DX009 (ip), vehicle: saline with Tween-80
  T/C: 101 % of control and 102 % of control and 111 % of control
dose: 160.0 mg/kg/injection, schedule: Q01DX009 (ip), vehicle: saline with Tween-80
  T/C: 94 % of control (2×) and 111 % of control
dose: 320.0 mg/kg/injection, schedule: Q01DX009 (ip), vehicle: saline with Tween-80
  T/C: 97 % of control

## CC[C@@]1(O)C[C@H](OC2CC(N(C)C)C(OC3CC(O)C(OC4CCC(=O)C(C)O4)C(C)O3)C(C)O2)c2c(cc3c(c2O)C(=O)c2c(O)ccc(O)c2C3=O)[C@H]1C(=O)OC (stereo partly drawn)
dose: 0.25 mg/kg/injection, schedule: Q01DX009 (ip), vehicle: saline
  T/C: 119 % of control
dose: 0.25 mg/kg/injection, schedule: Q01DX009 (ip), vehicle: water
  T/C: 110 % of control
dose: 0.37 mg/kg/injection, schedule: Q01DX009 (ip), vehicle: saline
  T/C: 102 % of control
dose: 0.5 mg/kg/injection, schedule: Q01DX009 (ip), vehicle: saline
  T/C: 114 % of control
dose: 0.5 mg/kg/injection, schedule: Q01DX009 (ip), vehicle: water
  T/C: 120 % of control
dose: 0.75 mg/kg/injection, schedule: Q01DX009 (ip), vehicle: saline
  T/C: 113 % of control
dose: 0.75 mg/kg/injection, schedule: Q04DX003 (ip), vehicle: saline
  T/C: 91 % of control
dose: 1.0 mg/kg/injection, schedule: Q01DX009 (ip), vehicle: saline
  T/C: 157 % of control and 168 % of control
dose: 1.5 mg/kg/injection, schedule: Q01DX009 (ip), vehicle: saline
  T/C: 150 % of control
dose: 1.5 mg/kg/injection, schedule: Q04DX003 (ip), vehicle: saline
  T/C: 91 % of control and 106 % of control
dose: 2.0 mg/kg/injection, schedule: Q01DX009 (ip), vehicle: saline
  T/C: 107 % of control
dose: 3.0 mg/kg/injection, schedule: Q04DX003 (ip), vehicle: saline
  T/C: 108 % of control and 115 % of control
dose: 3.6 mg/kg/injection, schedule: Q01DX001 (ip), vehicle: water
  T/C: 100 % of control and 102 % of control
dose: 6.0 mg/kg/injection, schedule: Q01DX001 (ip), vehicle: water
  T/C: 92 % of control and 102 % of control
dose: 6.0 mg/kg/injection, schedule: Q04DX003 (ip), vehicle: saline
  T/C: 88 % of control and 97 % of control
dose: 10.0 mg/kg/injection, schedule: Q01DX001 (ip), vehicle: water
  T/C: 101 % of control and 102 % of control
dose: 16.7 mg/kg/injection, schedule: Q01DX001 (ip), vehicle: water
  T/C: 106 % of control

## O=NN(CCCl)C(=O)NC1OC(CO)C(O)C(O)C1O (stereo not drawn)
dose: 0.16 mg/kg/injection, schedule: Q01DX009 (ip), vehicle: saline
  T/C: 107 % of control
dose: 0.31 mg/kg/injection, schedule: Q01DX009 (ip), vehicle: saline
  T/C: 111 % of control and 116 % of control
dose: 0.62 mg/kg/injection, schedule: Q01DX009 (ip), vehicle: saline
  T/C: 108 % of control
dose: 1.25 mg/kg/injection, schedule: Q01DX009 (ip), vehicle: saline
  T/C: 178 % of control
dose: 2.5 mg/kg/injection, schedule: Q01DX009 (ip), vehicle: saline
  T/C: 188 % of control
dose: 5.0 mg/kg/injection, schedule: Q01DX009 (ip), vehicle: saline
  T/C: 193 % of control

## C=CCOCC(O)CN(CC)c1ccccc1 (stereo not drawn)
dose: 75.0 mg/kg/injection, schedule: Q04DX003 (ip), vehicle: Klucel (hydroxypropylcellulose) (HPC)
  T/C: 89 % of control
dose: 150.0 mg/kg/injection, schedule: Q04DX003 (ip), vehicle: Klucel (hydroxypropylcellulose) (HPC)
  T/C: 89 % of control
dose: 300.0 mg/kg/injection, schedule: Q04DX003 (ip), vehicle: Klucel (hydroxypropylcellulose) (HPC)
  T/C: 98 % of control

## COC(=O)C1(C(=O)OC)C=CCCC1=O
[7]
  T/C: 99 % of control
[11]
  T/C: 97 % of control

## CNCC(C)CN1CCCCCc2ccccc21 (stereo not drawn)
dose: 3.12 mg/kg/injection, schedule: Q01DX009 (ip), vehicle: saline
  T/C: 102 % of control
[1]
  T/C: 100 % of control
[2]
  T/C: 95 % of control
[3]
  T/C: 100 % of control
[4]
  T/C: 113 % of control

## CNc1nc(N)nc(Nc2ccc(I)cc2)c1N=O
[5]
  T/C: 99 % of control
[6]
  T/C: 90 % of control
[8]
  T/C: 94 % of control
[7]
  T/C: 96 % of control
[9]
  T/C: 94 % of control
[10]
  T/C: 94 % of control
[12]
  T/C: 123 % of control

## CC1CCC2(C)CCC3(C)C(=CCC4C5(C)CCC(O)C(C)(C)C5CCC43C)C2C1C (stereo not drawn)
[6]
  T/C: 99 % of control
[7]
  T/C: 97 % of control
[11]
  T/C: 90 % of control

## CCCCC(CC)CCC(O)CCC(CC)CC (stereo not drawn)
[7]
  T/C: 90 % of control
[12]
  T/C: 87 % of control

## COc1ccc2c(c1OC(C)=O)-c1cc(OC(C)=O)cc3c1C(C2)N(C(=O)CN(CCCl)CCCl)CC3 (stereo not drawn)
dose: 1.56 mg/kg/injection, schedule: Q04DX003 (ip), vehicle: DMSO
  T/C: 92 % of control
dose: 3.13 mg/kg/injection, schedule: Q04DX003 (ip), vehicle: DMSO
  T/C: 108 % of control
dose: 6.25 mg/kg/injection, schedule: Q04DX003 (ip), vehicle: DMSO
  T/C: 115 % of control
dose: 25.0 mg/kg/injection, schedule: Q04DX003 (ip), vehicle: DMSO
  T/C: 165 % of control

## C[C@]12CCC(=O)C=C1[C@@H](F)C[C@@H]1[C@@H]2[C@@H](O)C[C@@]2(C)[C@H]1CC[C@]2(O)C(=O)CO
dose: 25.0 mg/kg/injection, schedule: Q01DX009 (sc), vehicle: steriod suspending solution
  T/C: 95 % of control
dose: 50.0 mg/kg/injection, schedule: Q01DX009 (sc), vehicle: steriod suspending solution
  T/C: 97 % of control
dose: 100.0 mg/kg/injection, schedule: Q01DX009 (sc), vehicle: steriod suspending solution
  T/C: 101 % of control
